We go through 20 compounds from US8173651B2, “Pyridine compounds” (Synta Pharmaceuticals Corporation, priority 2003, dated 2012).

One assay has as its system adjuvant arthritis (AA) in female Lewis rats. Nature of the assay: In vivo adjuvant arthritis assay in rats. More on the design: species or system rat. As to conditions: oral, once a day for 7 days (day 7-14); dose-dependent; experiments repeated four times; FIG. 1. The protocol: Treatment of adjuvant arthritis in rats: Adjuvant arthritis (AA) was induced in female Lewis rats by the intracutaneous injection (base of the tail) of 0.1 mL of a 10 mg/mL bacterial suspension made from ground, heat-killed Mycobacterium tuberculosis H37Ra suspended in incomplete Freund's adjuvant. Rats were given a test compound orally once a day for 7 days (day 7-14), starting day 7 after mycobacterium induction. The development of polyarthritis was monitored daily by macroscopic inspection and assignment of an arthritis index to each animal, during the critical period (days 10 to 25 post-immunization).
The intensity of polyarthritis was scored according to the following scheme: (a) Grade each paw from 0 to 3 based on erythema, swelling, and deformity of the joints: 0 for no erythema or swelling; 0.5 if swelling is detectable in at least one joint; 1 for mild swelling and erythema; 2 for swelling and erythema of both tarsus and carpus; and 3 for ankylosis and bony deformity.
Maximum score for all 4 paws was thus 12. (b) Grade for other parts of the body: for each ear, 0.5 for redness and another 0.5 if knots are present; 1 for connective tissue swelling (saddle nose); and 1 for the presence of knots or kinks in the tail. The highest possible arthritic index was 16.
Experiments with the AA model were repeated four times.
Regarding `Cc1cccc(/C=N/Nc2cc(N3CCOCC3)cc(OCCN3CCOCC3)n2)c1` [Compound 14, N-(3-Methyl-benzylidene)-N′-[4-morpholin-4-yl-6-(2-morpholin-4-yl-ethoxy)-pyridin-2-yl]-hydrazine], the arthritic score result is “reproducibly reduced the arthritic score” and the development of polyarthritis entry was “delayed the development of polyarthritis”.

Another assay relates to IL-12 production in human PBMC or THP-1 cells. Put plainly: Human in vitro assay: inhibition of IL-12 production (ELISA) in stimulated PBMC or THP-1 cells. The assay is classed as cell-based. The conditions noted are these: IFNγ plus LPS or SAC stimulation. The text has this:
The biological activities of a heterocyclic compound can be evaluated by a number of cell-based assays. One of such assays can be conducted using cells from human peripheral blood mononuclear cells (PBMC) or human monocytic cell line (THP-1). The cells are stimulated with a combination of human interferon-γ (IFNγ) and lipopolysaccharide or a combination of IFNγ and Staphylococcus aureus Cowan I in the presence of a test compound. The level of inhibition of IL-12 production can be measured by determining the amount of p70 by using a sandwich ELISA assay with anti-human IL-12 antibodies. IC50 of the test compound can then be determined. Specifically, PBMC or THP-1 cells are incubated with the test compound. Cell viability was assessed using the bioreduction of MTS [3-(4,5-dimethylthiazol-2-yl)-5-(3-carboxymethoxyphenyl)-2-(4-sulfophenyl)-2H-tetrazolium] (Promega, Madison, Wis.).
Reagents. Staphylococcus aureus Cowan I (SAC) is obtained from Calbiochem (La Jolla, Calif.), and lipopolysaccharide (LPS, Serratia marscencens) is obtained from Sigma (St. Louis, Mo.). Human and mouse recombinant IFNγ are purchased from Boehringer Mannheim (Mannheim, Germany) and Pharmingen (San Diego, Calif.), respectively.
Human In Vitro Assay. Human PBMC were isolated by centrifugation using Ficoll-Paque (Pharmacia Biotech, Uppsala, Sweden) and prepared in RPMI medium supplemented with 10% fetal calf serum (FCS), 100 U/mL penicillin, and 100 μg/mL streptomycin. PBMC were plated in wells of a 96-well plate at a concentration of 5×10^5 cells/well, and primed by adding IFNγ (30 U/mL) for 22 h and stimulated by adding LPS (1 vg/mL), or by adding IFNγ (100 U/mL) and then stimulated by adding SAC (0.01%). A test pyridine compound was dissolved in DMSO, and added to wells of the 96-well plate. The final DMSO concentration was adjusted to 0.25% in all cultures, including the compound-free control. Human THP-1 cells were plated in wells, primed by adding IFNγ (100 U/mL) for 22 h and stimulated by adding SAC (0.025%) in the presence of different concentrations of the pyridine compound. Cell-free supernatants were taken 18 h later for measurement of cytokines. Cell viability was assessed using the bioreduction of MTS. Cell survival was estimated by determining the ratio of the absorbance in compound-treated groups versus compound-free control.
The supernatant was assayed for the amount of IL-12p40, IL-12p70, or IL-10 by using a sandwich ELISA with anti-human antibodies, i.e., a Human IL-12 p40 ELISA kit from R&D Systems (Berkeley, Calif.), and a Human IL-12 p70 or IL-10 ELISA kit from Endogen (Cambridge, Mass.). Assays were based on the manufacturer's instructions.
The biological activities of pyridine compounds were tested on human PBMC or THP-1 cells.
On the technique in general: ELISA stands for enzyme-linked immunosorbent assay.
In the case of `COc1ccc(CCOc2cc(NN=Cc3cccc(C)c3)nc(N3CCOCC3)c2)cc1OC` [Compound 5, N-{4-[2-(3,4-Dimethoxy-phenyl)-ethoxy]-6-morpholin-4-yl-pyridin-2-yl}-N′-(3-methyl-benzylidene)-hydrazine], the IC50 (as a rule, the concentration that gives 50% inhibition) stood at 2000 nM. Turning to `COc1ccc(CCOc2cc(NN=Cc3c[nH]c4ccccc34)nc(N3CCOCC3)c2)cc1OC` [Compound 3, N-{4-[2-(3,4-Dimethoxy-phenyl)-ethoxy]-6-morpholin-4-yl-pyridin-2-yl}-N′-(1H-indol-3-ylmethylene)-hydrazine], the IC50 was 800 nM.

Consider `Cc1cccc(C=NNc2nc(OCCN3CCOCC3)c(F)c(N3CCOCC3)c2F)c1` [Compound 12, N-[3,5-Difluoro-4-morpholin-4-yl-6-(2-morpholin-4-yl-ethoxy)-pyridin-2-yl]-N′-(3-methyl-benzylidene)-hydrazine], for which the IC50 is over 1000 nM. On to `Cc1cccc(/C=N/Nc2cc(N3CCOCC3)cc(OCCN3CCOCC3)n2)c1` [Compound 14, N-(3-Methyl-benzylidene)-N′-[4-morpholin-4-yl-6-(2-morpholin-4-yl-ethoxy)-pyridin-2-yl]-hydrazine], for which the IC50 was found to be 25 nM. In the case of `Cc1cccc(/C=N/N(C)c2cc(N3CCOCC3)cc(OCCN3CCOCC3)n2)c1` [Compound 17, N-Methyl-N′-(3-methyl-benzylidene)-N-[4-morpholin-4-yl-6-(2-morpholin-4-yl-ethoxy)-pyridin-2-yl]-hydrazine], the IC50 is 14.2 nM.

On to `Cc1cccc(/C=N/Nc2cc(N3CCOCC3)cc(OCCN3CCOCC3)[n+]2[O-])c1` [Compound 21, N-(3-Methyl-benzylidene)-N′-[4-morpholin-4-yl-6-(2-morpholin-4-yl-ethoxy)-1-oxy-pyridin-2-yl]-hydrazine], for which the 50% inhibitory concentration (IC50) is 86 nM. As for `COc1ccc(CCOc2cc(N3CCOCC3)cc(NN=Cc3cccc(C)c3)n2)cc1OC` [Compound 7, N-{6-[2-(3,4-Dimethoxy-phenyl)-ethoxy]-4-morpholin-4-yl-pyridin-2-yl}-N′-(3-methyl-benzylidene)-hydrazine], the IC50 amounted to 14.1 nM.

Take `COc1ccc(CCOc2cc(Nc3cccc(C)c3)nc(N3CCOCC3)c2)cc1OC` [Compound 10, {4-[2-(3,4-Dimethoxy-phenyl)-ethoxy]-6-morpholin-4-yl-pyridin-2-yl}-m-tolyl-amine]: the 50% inhibitory concentration (IC50) amounted to 5000 nM. On to `COc1ccc(CCOc2cc(NN=Cc3cccc(C)c3)cc(N3CCOCC3)n2)cc1OC` [Compound 6, N-{2-[2-(3,4-Dimethoxy-phenyl)-ethoxy]-6-morpholin-4-yl-pyridin-4-yl}-N′-(3-methyl-benzylidene)-hydrazine], for which the 50% inhibitory concentration (IC50) was found to be 5 nM. On the same count and under the same terms, the same measure for `Cc1ccc(N)c(/C=N/Nc2cc(N3CCOCC3)cc(OCCN3CCOCC3)n2)c1` [Compound 20, 4-Methyl-2-{[4-morpholin-4-yl-6-(2-morpholin-4-yl-ethoxy)-pyridin-2-yl]-hydrazonomethyl}-phenylamine]: 11.4 nM; for `Cc1cccc(/C=N/Nc2c(F)c(OCCN3CCOCC3)nc(N3CCOCC3)c2F)c1` [Compound 13, N-[3,5-Difluoro-2-morpholin-4-yl-6-(2-morpholin-4-yl-ethoxy)-pyridin-4-yl]-N′-(3-methyl-benzylidene)-hydrazine]: 148 nM. Turning to `COc1ccc(CCOc2cc(N3CCOCC3)cc(Nc3ccc4[nH]c(C)c(C)c4c3)n2)cc1OC` [Compound 4, {6-[2-(3,4-Dimethoxy-phenyl)-ethoxy]-4-morpholin-4-yl-pyridin-2-yl}-(2,3-dimethyl-1H-indol-5-yl)-amine], the IC50 was determined as 197 nM. For the compound `COc1ccc(CCOc2cc(Nc3ccc4[nH]c(C)c(C)c4c3)cc(N3CCOCC3)n2)cc1OC` [Compound 8, {2-[2-(3,4-Dimethoxy-phenyl)-ethoxy]-6-morpholin-4-yl-pyridin-4-yl}-(2,3-dimethyl-1H-indol-5-yl)-amine], the IC50 turned out to be 28 nM. On to `COc1ccc(CCOc2cc(Nc3ccc4[nH]c(C)c(C)c4c3)nc(N3CCOCC3)c2)cc1OC` [Compound 9, {4-[2-(3,4-Dimethoxy-phenyl)-ethoxy]-6-morpholin-4-yl-pyridin-2-yl}-(2,3-dimethyl-1H-indol-5-yl)-amine], for which the IC50 turned out to be 350 nM. On to `COc1ccc(CCOc2cc(NN=Cc3c[nH]c4ccccc34)cc(N3CCOCC3)n2)cc1OC` [Compound 1, N-{2-[2-(3,4-Dimethoxy-phenyl)-ethoxy]-6-morpholin-4-yl-pyridin-4-yl}-N′-(1H-indol-3-ylmethylene)-hydrazine], for which the IC50 was determined as 10 nM.

`Cc1cccc(C=NNc2cc(OCCN3CCOC3=O)cc(N3CCOCC3)n2)c1` [Compound 11, 3-(2-{2-[N′-(3-methyl-benzylidene)-hydrazino]-6-morpholin-4-yl-pyridin-4-yloxy}-ethyl)oxazolidin-2-one]: the IC50 amounted to 927 nM. With `Cc1cccc(/C=N/Nc2cc(OCCN3CCOC3=O)cc(N3CCOCC3)n2)c1` [Compound 18, 3-(2-{2-[N′-(3-Methyl-benzylidene)-hydrazino]-6-morpholin-4-yl-pyridin-4-yloxy}-ethyl)-oxazolidin-2-one], the IC50 came out at 927 nM. Still for that read-out and setting: the same measure for `C(=N\Nc1cc(N2CCOCC2)cc(OCCN2CCOCC2)n1)/c1ccoc1` [Compound 19, N-Furan-3-ylmethylene-N′-[4-morpholin-4-yl-6-(2-morpholin-4-yl-ethoxy)-pyridin-2-yl]-hydrazine]: 5000 nM; for `COc1ccc(CCOc2cc(N3CCOCC3)cc(NN=Cc3c[nH]c4ccccc34)n2)cc1OC` [Compound 2, N-{6-[2-(3,4-Dimethoxy-phenyl)-ethoxy]-4-morpholin-4-yl-pyridin-2-yl}-N′-(1H-indol-3-ylmethylene)-hydrazine]: 5 nM; for `C(=N\Nc1cc(N2CCOCC2)cc(OCCN2CCOCC2)n1)/c1c[nH]c2ccccc12` [Compound 16, N-(1H-Indol-3-ylmethylene)-N′-[4-morpholin-4-yl-6-(2-morpholin-4-yl-ethoxy)-pyridin-2-yl]-hydrazine]: 36.6 nM.
